Test [1] has as its system RLE. Kind of test: Sandwich assay for Adenovirus, free inhibitor added to control wells (RLE, o-nitrophenyl butyrate). Type of test: biochemical, rabbit. To be noted: control wells having no antigen; 5×10^-9 M RLE, 50 mM TRIS pH 8.5, 1 mM o-nitrophenyl butyrate; color without inhibitor in ca 15 minutes. How it is done: A polyvinyl chloride microtiter plate was coated with anit-adenovirus antibody by incubating the plate for 1 hour at 37° C. in a 1:900 dilution of 4.5 mg/mL stock solution of the antibody in a 10 mM carbonate 20 mM ethylenediaminetetraacetic acid (EDTA) buffer. The plate was washed 3 times with a wash buffer solution consisting of 0.5% casein in 10 mM TRIS and 154 mM NaCl at pH 7.6. Adenovirus infected HeLa cells diluted to ca 1×10^5 plaque forming units (PFU)/ml in pH 7.4 phosphate buffered-saline containing 0.05% polyoxyethylenesorbitan monolaurate, 0.1 mg/ML gentamicin, 0.5% phenol red, 0.1% bovine serum albumin, 10 mM EDTA and 100 mM ethylene bis(oxyethylenenitrilo) tetraacetic acid were serially diluted in 2-fold steps across the plate. The plate was incubated-as above to bind the cells to the antibody, washed with wash buffer, incubated with a 0.005 mg/mL tracer solution of anti-adenovirus conjugated to alkaline phosphatase in wash buffer containing 0.5% gelatin and 10% inactivated fetal calf serum. Excess tracer solution was decanted and the plate was washed 3 times with TRIS buffer (without casein). A mixture of a 1×10^-4 M solution of the blocked inhibitor from Example I and 5×10^-9 M RLE in 50 mM TRIS buffer, pH 8.5, was added and the plate was incubated at room temperature for 10 minutes. o-Nitrophenyl butyrate (1 mM) was then added to each well of the plate. […]

For test [2], the target named is T1, Rabbit Liver Esterase (E.C. 3.1.1.1) (Oryctolagus cuniculus, UniProt P12337).
T1 construct: from tissue; host or cells: liver
T1 sequence (P12337 19-565): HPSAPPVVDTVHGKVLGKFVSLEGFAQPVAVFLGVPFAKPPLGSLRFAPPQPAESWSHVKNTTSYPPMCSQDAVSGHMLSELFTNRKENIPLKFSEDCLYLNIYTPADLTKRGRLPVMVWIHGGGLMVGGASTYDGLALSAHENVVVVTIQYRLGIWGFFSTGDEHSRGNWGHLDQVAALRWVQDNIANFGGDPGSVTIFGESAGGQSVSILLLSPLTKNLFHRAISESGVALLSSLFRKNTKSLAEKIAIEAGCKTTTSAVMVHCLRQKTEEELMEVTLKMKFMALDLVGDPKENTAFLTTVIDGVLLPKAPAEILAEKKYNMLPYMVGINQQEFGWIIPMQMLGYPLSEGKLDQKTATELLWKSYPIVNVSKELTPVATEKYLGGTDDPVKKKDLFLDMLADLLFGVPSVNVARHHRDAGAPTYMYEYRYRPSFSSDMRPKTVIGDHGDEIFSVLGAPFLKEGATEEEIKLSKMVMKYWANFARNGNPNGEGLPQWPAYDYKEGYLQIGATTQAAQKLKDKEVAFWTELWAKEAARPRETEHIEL
The test can be described thus: Inhibition constant, rabbit liver esterase (o-nitrophenylbutyrate hydrolysis). To be noted: RLE; 50 mM Tris pH=8.0; 20 min incubation at ambient temperature; substrate o-nitro-phenylbutrate. Format: biochemical. As to the method: Inhibition constants were measured in 50 mM Tris pH=8.0. Enzyme and inhibitor were incubated at ambient temperature for 20 minutes. Substrate for the enzyme was then added and the rate of hydrolysis was followed spectrophotometrically. The substrate for PLE and RLE was o-nitro-phenylbutrate and for AChE was acetyl thiocholine and Ellman's reagent.

Consider `O=C(CCc1ccc(O)cc1)C(F)(F)F` [1,1,1-Trifluoro-4-(4-hydroxyphenyl)-2-butanone], for which, in test [1], the “color formation in control wells on addition of free inhibitor” value is reported as “inhibited color formation for longer periods”.

As a reminder, the Ki is a measure of affinity in units of concentration, obtained from inhibition or displacement. High values mean lower affinity, low ones higher affinity. Regarding `O=C(/C=C/c1cccc(O)c1)C(F)(F)F` [1,1,1-trifluoro-4-(3-hydroxyphenyl)-3-trans-buten-2-one], the inhibition constant Ki in test [2] was determined as 160 nM.

Source of the values: patent US5344952A, “Fluoroketone enzyme inhibitors” (priority 1993, dated 1994).
